Experimental data: patent US10463671B2, “Combination therapy for treating cancer” (Epizyme, Inc., priority 2013, dated 2019)
Like-named read-outs stand apart in the source and are kept apart here. Marks after values point to notes of the source that are not given here.

How the values were obtained:
[1] = test system: Toledo cells; test: Medium throughput combination proliferation assay (CellTiter-Glo, Chou-Talalay CI / potency shift); details: for IC50: read-out: Potency (IC50), single agent, dosed for 5 days; for IC50 / 1/α: Toledo; for 1/α: combination with Compound 44; for Summary of Combinations with Compound 44: Toledo (EZH2 WT GCB), drug combined with Compound 44
[2] = test system: SU-DHL-5 cells; test: as above; details: for IC50: Homo sapiens, SU-DHL-5, 72 h, read-out: Potency (IC50); for 1/α: combination with Compound 44
[3] = test system: WSU-DLCL2 cells; test: as above; details: for IC50: Homo sapiens, WSUDLCL2, 72 h, read-out: Potency (IC50); for Summary of Combinations with Compound 44: WSU-DLCL2 (EZH2 Mutant GCB), drug combined with Compound 44; for growth inhibition by the drug by itself: WSU-DLCL2 (EZH2 mutant); for 1/α: combination with Compound 44
[4] = test system: SU-DHL-10 cells; test: as above; details: for CI range (combination index) / 1/α: SU-DHL-10; for CI range (combination index): combination with Compound 44 at constant ratio, CI range above Fractional effect of 0.5; for IC50: read-out: Potency (IC50), SU-DHL-10 (GCB sub-type EZH2 Y646F), after 3 days of dosing; for IC50 / growth inhibition by the drug by itself: single agent; for 1/α: combination with Compound 44; for Summary of Combinations with Compound 44: SU-DHL10 (EZH2 Mutant GCB), drug combined with Compound 44; for growth inhibition by the drug by itself: SU-DHL10 (EZH2 mutant)
[5] = test system: DOHH2 cells; test: as above; details: for IC50: read-out: Potency (IC50), DOHH-2 (GCB sub-type WT EZH2), single agent, after 3 days of dosing; for 1/α: DOHH2, combination with Compound 44, data normalized to individual 6438 concentrations instead of DMSO; for Summary of Combinations with Compound 44: DOHH2 (EZH2 WT GCB), drug combined with Compound 44
[6] = test system: OCI-LY19 cells; test: as above; details: for IC50: Homo sapiens, OCI-LY19, 72 h, read-out: Potency (IC50); for 1/α: OCI-LY19, combination with Compound 44
[7] = test system: SU-DHL6 cells; test: as above; assay type: cell-based; details: SU-DHL6 (EZH2 Mutant GCB); drug combined with Compound 44
[8] = test system: H3K27 acetylation levels; details: WSU-DLCL2, OCI-LY19, RL cells; 4 days
Method: Acid extracted histones were analyzed by western blot for H3K27 acetylation levels.

[9] = test system: Sestrin 1 (SESN1), TNF and GILZ expression; details: all cell lines; 4 days
Method: Gene expression was normalized to array's B2M and fold change compared to DMSO was calculated using the ΔΔCt method.

[10] = test system: H3K27Me3 levels; details: single agent, four day treatment

| Compound | IC50 [2] [nM] | IC50 [4] [nM] | IC50 [6] [nM] | IC50 [1] [nM] | IC50 [3] [nM] | IC50 [5] [nM] | 1/α [6] | 1/α [1] | 1/α [5] | Summary of Combinations with Compound 44 [3] | Summary of Combinations with Compound 44 [4] | other results |
| --- | --- | --- | --- | --- | --- | --- | --- | --- | --- | --- | --- | --- |
| COc1cccc2c1C(=O)c1c(O)c3c(c(O)c1C2=O)C[C@@](O)(C(=O)CO)C[C@@H]3O[C@H]1C[C@H](N)[C@H](O)[C@H](C)O1 [Doxorubicin] | – | – | – | – | – | – | – | – | – | Synergy | Additive | Summary of Combinations with Compound 44 [1]: No effect; Summary of Combinations with Compound 44 [7]: Additive; growth inhibition by the drug by itself ([3]; single agent): concentration-dependent growth inhibition; growth inhibition by the drug by itself [4]: concentration-dependent growth inhibition; Summary of Combinations with Compound 44 [5]: No effect |
| C=CC(=O)N1CCC[C@@H](n2nc(-c3ccc(Oc4ccccc4)cc3)c3c(N)ncnc32)C1 [Ibrutinib] | 1330 | 1150 | > 10000 | > 10000 | 278 | 956 | No effect | No effect | 0.67 | – | – | – |
| CC[C@H](Nc1ncnc2[nH]cnc12)c1nc2cccc(F)c2c(=O)n1-c1ccccc1 [Idelalisib] | 2590 | 8430 | > 10000 | 9800 | 2050 | 2980 | No effect | 1.1^ | 0.59 | very strong synergy | very strong synergy | – |
| COC1=CC(c2cc3ccccc3[nH]2)=N/C1=C\c1[nH]c(C)cc1C [Obatoclax] | 9.8 | 19.5 | 42 | 96 | 59 | 51 | 1.50 | – | – | – | – | CI range (combination index) ([2]; SU-DHL-5, combination with Compound 44 at constant ratio, CI range above Fractional effect of 0.5): 1.26-1.61^e; CI range (combination index) ([3]; WSU-DLCL2, combination with Compound 44 at constant ratio, CI range above Fractional effect of 0.5): 1.10^e; CI range (combination index) [4]: 0.91-1.36^e |
| COc1cc(Nc2ncc(F)c(Nc3ccc4c(n3)NC(=O)C(C)(C)O4)n2)cc(OC)c1OC [Tamatinib] | 3760 | 2210 | > 10000 | 3200 | 3420 | 1210 | No effect | No effect | 0.81 | very strong synergy | very strong synergy | – |
| CC[C@]1(O)C[C@H]2CN(CCc3c([nH]c4ccccc34)[C@@](C(=O)OC)(c3cc4c(cc3OC)N(C=O)[C@H]3[C@@](O)(C(=O)OC)[C@H](OC(C)=O)[C@]5(CC)C=CCN6CC[C@]43[C@@H]65)C2)C1 [Vincristine] | – | – | – | – | – | – | – | – | – | Additive | Additive | Summary of Combinations with Compound 44 [1]: No effect; Summary of Combinations with Compound 44 [7]: Additive; Summary of Combinations with Compound 44 ([3]; listed as vincristine): Combination benefit; growth inhibition by the drug by itself ([3]; single agent): concentration-dependent growth inhibition; Summary of Combinations with Compound 44 ([4]; listed as vincristine): Combination benefit; growth inhibition by the drug by itself [4]: concentration-dependent growth inhibition; Summary of Combinations with Compound 44 [5]: No effect |
| Rituximab: the antibody combined with chemotherapeutics in R-CHOP, targets cd-20 | – | – | – | – | – | – | – | – | – | – | – | 1/α ([3]; WSU-DLCL2): 2.6; Potency (IC50), Rituximab ([3]; WSU-DLCL2, single agent, after 3 days of dosing): >10^a μg/ml |

The next lines start with results.

| IC50 [2] [nM] | IC50 [4] [nM] | IC50 [6] [nM] | Compound | IC50 [1] [nM] | IC50 [3] [nM] | IC50 [5] [nM] | 1/α [6] | 1/α [1] | 1/α [5] | Summary of Combinations with Compound 44 [3] | Summary of Combinations with Compound 44 [4] | other results |
| --- | --- | --- | --- | --- | --- | --- | --- | --- | --- | --- | --- | --- |
| > 10000 | 3040 | 53 | CC1(C)CCC(CN2CCN(c3ccc(C(=O)NS(=O)(=O)c4ccc(NCC5CCOCC5)c([N+](=O)[O-])c4)c(Oc4cnc5[nH]ccc5c4)c3)CC2)=C(c2ccc(Cl)cc2)C1 [ABT-199] | 190 | 1940 | 77 | 4.20 | – | – | – | – | 1/α ([2]; SU-DHL-5): No Effect; CI range (combination index) [4]: 1.2-1.4^e |
| 4 | 8.6 | 12 | CC(C)C[C@H](NC(=O)[C@H](Cc1ccccc1)NC(=O)c1cnccn1)B(O)O [Bortezomib] | 4.3 | 6.5 | 6.6 | 1.67 | 0.96 | 0.96 | – | – | – |
| 3.4 | > 100 | 79 | C[C@@H]1C[C@H]2[C@@H]3CCC4=CC(=O)C=C[C@]4(C)[C@@]3(F)[C@@H](O)C[C@]2(C)[C@@]1(O)C(=O)CO [Dexamethasone] | > 100 | > 10000 | 5.6 | 7.7 | No effect | 4.2 | – | – | Summary of Combinations with Compound 44 [1]: No effect; 1/α [4]: 3.7 |
| 0.72 | 0.854 | – | CO[C@H]1C[C@@H]2CC[C@@H](C)[C@@](O)(O2)C(=O)C(=O)N2CCCC[C@H]2C(=O)O[C@H]([C@H](C)C[C@@H]2CC[C@@H](OCCO)[C@H](OC)C2)CC(=O)[C@H](C)/C=C(\C)[C@@H](O)[C@@H](OC)C(=O)[C@H](C)C[C@H](C)/C=C/C=C/C=C/1C [Everolimus] | 0.1 | 0.653 | 0.13 | No effect | No effect | – | very strong synergy | very strong synergy | – |
| 162 | 275 | 304 | NC1(c2ccc(-c3nc4ccn5c(=O)[nH]nc5c4cc3-c3ccccc3)cc2)CCC1 [MK-2206] | 95 | 127 | 86 | 71.40 | – | 0.64 | very strong synergy | very strong synergy | – |
| > 10000 | > 10000 | 131 | CC1(C)CCC(c2ccc(Cl)cc2)=C(CN2CCN(c3ccc(C(=O)NS(=O)(=O)c4ccc(N[C@H](CCN5CCOCC5)CSc5ccccc5)c(S(=O)(=O)C(F)(F)F)c4)cc3)CC2)C1 [Navitoclax] | 590 | 3540 | 540 | 6.60 | No effect | – | – | – | 1/α ([2]; SU-DHL-5): No Effect |
| 39 | > 1000 | 47 | C[C@]12C=CC(=O)C=C1CC[C@@H]1[C@@H]2[C@@H](O)C[C@@]2(C)[C@H]1CC[C@]2(O)C(=O)CO [Prednisolone] | > 1000 | – | 133 | 4.2 | No effect | 9.5 | Synergy | Synergy | global H3K27 acetylation levels [8]: not affected; Summary of Combinations with Compound 44 [1]: No effect; Summary of Combinations with Compound 44 ([2]; SU-DHL5 (EZH2 WT GCB), drug combined with Compound 44): Synergy; 1/α ([2]; SU-DHL-5): 7.6; Summary of Combinations with Compound 44 [7]: Synergy; TSC22D3/GILZ expression [9]: up-regulated; growth inhibition by the drug by itself ([3]; single agent): no sensitivity; 1/α ([3]; WSU-DLCL2): 9.7; growth inhibition by the drug by itself [4]: no sensitivity; 1/α [4]: 4.2; Summary of Combinations with Compound 44 [5]: Synergy; potency of the glucocorticoid agonist with addition of Compound 44 ([5]; DOHH2 EZH2 wild-type cells): increased; Summary of Combinations with Compound 44 ([6]; OCI-LY-19 (EZH2 WT GCB), drug combined with Compound 44): Synergy; H3K27Me3 levels ([10]; OCI-LY19 cells): increase H3K27Me3 levels at higher doses; H3K27Me3 levels ([10]; RL cells): no effect; H3K27Me3 levels ([10]; WSU-DLCL2 cells): no effect |
| > 10000 | > 10000 | > 10000 | CC(=O)Nc1cccc(-n2c(=O)n(C3CC3)c(=O)c3c(Nc4ccc(I)cc4F)n(C)c(=O)c(C)c32)c1 [Trametinib] | > 10000 | 8610 | > 10000 | No effect | No effect | – | – | – | – |
